pIC50: −log10 of the molar value.

Consider 25 molecules from patent publication US11427558B1, “Indazoles and azaindazoles as LRRK2 inhibitors” (ESCAPE Bio, Inc., priority 2019, dated 2022).

Experiment [1] has as its target Recombinant wild type LRRK2 protein (Homo sapiens (Human), UniProt Q5S007). Put plainly: LRRK2 kinase activity, LanthaScreen TR-FRET assay (wild type). It is filed as biochemical. The conditions noted are these: LRRKtide 400 nM, 25 μM ATP, 60 min; read-out: LRRK2 WT IC50. Summed up:
(§1)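 Recombinant human wild-type or G2019S LRRK2 phosphorylated fluorescein-labelled LRRKtide (ERM-based) with ATP and serially diluted compound for 60 min at room temperature.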

For experiment [2], the target named is Recombinant G2019S-LRRK2 protein (Homo sapiens (Human), UniProt Q5S007, G2019S). Put plainly: LRRK2 kinase activity, LanthaScreen TR-FRET assay (G2019S). It is filed as biochemical. The note with it: LRRKtide 400 nM, 25 μM ATP, 60 min. Summed up: as §1
Recombinant G2019S-LRRK2 protein, sequence (Q5S007 whole entry G2019S): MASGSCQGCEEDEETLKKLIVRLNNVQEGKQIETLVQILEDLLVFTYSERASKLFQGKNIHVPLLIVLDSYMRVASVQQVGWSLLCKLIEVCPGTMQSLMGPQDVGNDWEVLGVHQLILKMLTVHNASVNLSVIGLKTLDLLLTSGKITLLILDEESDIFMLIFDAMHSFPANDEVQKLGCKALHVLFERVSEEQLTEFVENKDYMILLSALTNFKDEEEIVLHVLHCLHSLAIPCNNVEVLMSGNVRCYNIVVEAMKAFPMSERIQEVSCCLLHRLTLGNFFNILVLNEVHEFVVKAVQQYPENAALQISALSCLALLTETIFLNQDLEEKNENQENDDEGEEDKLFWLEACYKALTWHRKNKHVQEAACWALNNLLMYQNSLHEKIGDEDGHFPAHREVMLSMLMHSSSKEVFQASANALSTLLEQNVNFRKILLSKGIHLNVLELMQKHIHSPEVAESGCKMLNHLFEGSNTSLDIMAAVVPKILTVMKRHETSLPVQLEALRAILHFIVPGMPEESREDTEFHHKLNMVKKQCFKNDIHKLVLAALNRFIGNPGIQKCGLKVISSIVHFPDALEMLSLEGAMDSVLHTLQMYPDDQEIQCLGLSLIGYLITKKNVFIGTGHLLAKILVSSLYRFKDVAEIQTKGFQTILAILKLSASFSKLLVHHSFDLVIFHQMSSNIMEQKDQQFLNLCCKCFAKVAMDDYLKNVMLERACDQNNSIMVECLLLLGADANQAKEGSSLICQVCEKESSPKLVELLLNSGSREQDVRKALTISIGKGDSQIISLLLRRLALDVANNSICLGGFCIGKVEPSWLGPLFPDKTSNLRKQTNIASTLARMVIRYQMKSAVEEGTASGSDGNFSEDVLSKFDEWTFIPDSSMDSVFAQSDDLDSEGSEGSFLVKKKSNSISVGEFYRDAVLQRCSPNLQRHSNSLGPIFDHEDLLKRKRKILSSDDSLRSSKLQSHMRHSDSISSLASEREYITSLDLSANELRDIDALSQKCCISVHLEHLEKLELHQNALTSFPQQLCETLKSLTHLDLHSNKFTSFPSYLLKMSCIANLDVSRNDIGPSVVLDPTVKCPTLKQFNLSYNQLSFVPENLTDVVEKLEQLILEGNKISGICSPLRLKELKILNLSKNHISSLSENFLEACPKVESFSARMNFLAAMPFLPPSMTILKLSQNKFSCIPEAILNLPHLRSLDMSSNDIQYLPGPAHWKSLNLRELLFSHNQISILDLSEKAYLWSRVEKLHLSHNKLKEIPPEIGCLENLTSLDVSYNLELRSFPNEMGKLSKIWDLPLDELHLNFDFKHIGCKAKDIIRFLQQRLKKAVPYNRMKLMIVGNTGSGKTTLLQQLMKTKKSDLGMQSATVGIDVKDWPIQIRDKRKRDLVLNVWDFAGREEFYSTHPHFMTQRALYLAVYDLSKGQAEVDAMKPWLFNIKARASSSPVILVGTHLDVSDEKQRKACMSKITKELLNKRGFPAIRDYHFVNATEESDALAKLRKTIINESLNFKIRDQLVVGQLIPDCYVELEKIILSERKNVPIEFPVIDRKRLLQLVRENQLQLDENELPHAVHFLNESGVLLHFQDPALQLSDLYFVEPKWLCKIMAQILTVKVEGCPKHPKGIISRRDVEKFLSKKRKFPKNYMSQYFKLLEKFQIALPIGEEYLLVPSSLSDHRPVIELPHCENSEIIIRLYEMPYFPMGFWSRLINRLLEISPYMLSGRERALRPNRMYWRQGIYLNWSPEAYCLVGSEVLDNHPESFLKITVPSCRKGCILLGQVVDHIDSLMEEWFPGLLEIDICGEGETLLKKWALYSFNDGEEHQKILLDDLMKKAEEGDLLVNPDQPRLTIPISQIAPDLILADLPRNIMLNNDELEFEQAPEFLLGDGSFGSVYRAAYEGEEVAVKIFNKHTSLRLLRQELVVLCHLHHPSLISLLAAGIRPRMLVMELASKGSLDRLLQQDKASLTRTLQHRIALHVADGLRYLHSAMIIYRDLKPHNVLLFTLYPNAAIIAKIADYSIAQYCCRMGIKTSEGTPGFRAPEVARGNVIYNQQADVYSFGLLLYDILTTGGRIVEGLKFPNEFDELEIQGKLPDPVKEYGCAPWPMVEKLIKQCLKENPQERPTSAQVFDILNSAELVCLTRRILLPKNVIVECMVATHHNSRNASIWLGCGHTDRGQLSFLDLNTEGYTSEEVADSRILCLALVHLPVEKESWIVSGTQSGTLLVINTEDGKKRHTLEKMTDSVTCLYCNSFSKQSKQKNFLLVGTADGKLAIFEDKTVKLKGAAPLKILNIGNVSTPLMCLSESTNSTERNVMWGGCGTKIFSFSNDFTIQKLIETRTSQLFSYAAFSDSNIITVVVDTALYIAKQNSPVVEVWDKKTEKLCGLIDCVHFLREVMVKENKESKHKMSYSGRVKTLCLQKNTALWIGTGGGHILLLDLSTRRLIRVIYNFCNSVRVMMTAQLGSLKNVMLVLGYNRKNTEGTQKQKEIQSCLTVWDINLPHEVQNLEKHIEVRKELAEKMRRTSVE

Recombinant wild type LRRK2 protein, sequence (Q5S007 whole entry): as the sequence (Q5S007 whole entry G2019S) above, with S2019G counted along it

The term pIC50 denotes the negative decadic logarithm of the IC50, by convention in mol/L. With `Cc1cc(C#N)cnc1C(=O)Nc1ccc2[nH]nc(-c3ccc(Cl)s3)c2c1` [Example 139, N-(3-(5-Chlorothiophen-2-yl)-1H-indazol-5-yl)-5-cyano-3-methylpicolinamide], the pIC50 in experiment [1] is 5.00 to 6.00; in experiment [2], over 7.00.

On to `Cc1cc(C#N)cnc1C(=O)Nc1ccc2[nH]nc(-c3ccc(C(=O)N4CCOCC4)cc3)c2c1` [Example 108, 5-Cyano-3-methyl-N-(3-(4-(morpholine-4-carbonyl)phenyl)-1H-indazol-5-yl)picolinamide], for which the figures for the pIC50 in experiment [1] and in experiment [2] were 6.00 to 7.00 and over 7.00, respectively.

Turning to `Cc1cc(C#N)cnc1C(=O)Nc1cc(C)c2[nH]nc(-c3ccoc3)c2c1` [Example 80, 5-Cyano-N-(3-(furan-3-yl)-7-methyl-1H-indazol-5-yl)-3-methylpicolinamide], the pIC50 in experiment [1] is 5.00 to 6.00; in experiment [2], 6.00 to 7.00.

`Cc1cc(C#N)cnc1C(=O)Nc1ccc2[nH]nc(N3CCC3)c2c1` [Example 253, N-(3-(Azetidin-1-yl)-1H-indazol-5-yl)-5-cyano-3-methylpicolinamide]: the pIC50 in experiment [1] is 5.00 to 6.00; in experiment [2], 6.00 to 7.00.

Take `Cn1nc(C(=O)Nc2ccc3[nH]nc(-c4ccoc4)c3c2)cc1C#N` [Example 97, 5-Cyano-N-(3-(furan-3-yl)-1H-indazol-5-yl)-1-methyl-1H-pyrazole-3-carboxamide]: the results for the pIC50 in experiment [1] and in experiment [2] were 6.00 to 7.00 and over 7.00, respectively.

In the case of `Cc1c(C#N)cnc(C(=O)Nc2ccc3[nH]nc(C=C4CCOCC4)c3c2)c1C` [Example 262, 5-Cyano-3,4-dimethyl-N-(3-((tetrahydro-4H-pyran-4-ylidene)methyl)-1H-indazol-5-yl)picolinamide], the pIC50 in experiment [1] and in experiment [2] was 5.00 to 6.00 each time.

Consider `N#Cc1ccc(F)c(C(=O)Nc2ccc3[nH]nc(-c4cnco4)c3c2)c1F` [Example 188, 3-Cyano-2,6-difluoro-N-(3-(oxazol-5-yl)-1H-indazol-5-yl)benzamide], for which the pIC50 in experiment [1] and in experiment [2] was over 7.00 throughout.

Turning to `Cc1c(C(=O)Nc2ccc3[nH]nc(-c4ccoc4)c3c2)nn(C)c1C#N` [Example 93, 5-Cyano-N-(3-(furan-3-yl)-1H-indazol-5-yl)-1,4-dimethyl-1H-pyrazole-3-carboxamide], the pIC50 in experiment [1] and in experiment [2] was 6.00 to 7.00 each time.

With `Cc1cc(C(=O)Nc2ccc3[nH]nc(-c4ccoc4)c3c2)ncc1C#N` [Example 94, 5-Cyano-N-(3-(furan-3-yl)-1H-indazol-5-yl)-4-methylpicolinamide], the values for the pIC50 in experiment [1] and in experiment [2] were 6.00 to 7.00 and over 7.00, respectively.

Consider `Cc1c(C#N)cnc(C(=O)Nc2ccc3[nH]nc(/C=C4/CCOC4)c3c2)c1C` [Example 261, (Z)-5-Cyano-N-(3-((dihydrofuran-3(2H)-ylidene)methyl)-1H-indazol-5-yl)-3,4-dimethylpicolinamide], for which the pIC50 was 5.00 to 6.00 in experiment [1] and over 7.00 in experiment [2].

Consider `Cc1cc(C#N)cnc1C(=O)Nc1ccc2[nH]nc(-c3coc(C#N)c3)c2c1` [Example 76, 5-Cyano-N-(3-(5-cyanofuran-3-yl)-1H-indazol-5-yl)-3-methylpicolinamide], for which the pIC50 in experiment [1] and in experiment [2] was over 7.00 in each case.

For the molecule `Cc1cc(C#N)cnc1C(=O)Nc1ccc2[nH]nc(-c3cscn3)c2c1` [Example 156, 5-Cyano-3-methyl-N-(3-(thiazol-4-yl)-1H-indazol-5-yl)picolinamide], the pIC50 in experiment [1] and in experiment [2] was 6.00 to 7.00 throughout.

For `COc1n[nH]c2ccc(NC(=O)c3nc(C)c(C#N)c(C)c3C)cc12` [Example 287, 5-Cyano-N-(3-methoxy-1H-indazol-5-yl)-3,4,6-trimethylpicolinamide], the results for the pIC50 in experiment [1] and in experiment [2] were 6.00 to 7.00 and over 7.00, respectively.

For `Cc1c(C#N)cnc(C(=O)Nc2ccc3[nH]nc(C4CC4C(F)(F)F)c3c2)c1C` (centres unmarked) [Example 265, 5-Cyano-3,4-dimethyl-N-(3-(2-(trifluoromethyl)cyclopropyl)-1H-indazol-5-yl)picolinamide], the results for the pIC50 in experiment [1] and in experiment [2] were 5.00 to 6.00 and 6.00 to 7.00, respectively.

Take `Cc1cc(-c2n[nH]c3ccc(NC(=O)c4ncc(C#N)cc4C)cc23)ccn1` [Example 74, 5-Cyano-3-methyl-N-(3-(2-methylpyridin-4-yl)-1H-indazol-5-yl)picolinamide]: the pIC50 in experiment [1] and in experiment [2] was over 7.00 throughout.

On to `N#Cc1ccc(C(=O)Nc2ccc3[nH]nc(-c4ccoc4)c3c2)c2ncccc12` [Example 142, 5-Cyano-N-(3-(furan-3-yl)-1H-indazol-5-yl)quinoline-8-carboxamide], for which the pIC50 in experiment [1] is 6.00 to 7.00; in experiment [2], over 7.00.

Consider `COc1cc(-c2n[nH]c3ccc(NC(=O)c4c(C)c(C#N)nn4C)cc23)ccn1` [Example 194, 3-Cyano-N-(3-(2-methoxypyridin-4-yl)-1H-indazol-5-yl)-1,4-dimethyl-1H-pyrazole-5-carboxamide], for which the pIC50 is 6.00 to 7.00 in experiment [1] and over 7.00 in experiment [2].

For the molecule `Cc1c(C#N)nn(C)c1C(=O)Nc1ccc2[nH]nc(-c3ccoc3)c2c1` [Example 92, 3-Cyano-N-(3-(furan-3-yl)-1H-indazol-5-yl)-1,4-dimethyl-1H-pyrazole-5-carboxamide], the negative-log IC50 (pIC50) in experiment [1] is 6.00 to 7.00; in experiment [2] it was over 7.00.

For the molecule `Cc1c(C#N)cnc(C(=O)Nc2ccc3[nH]nc(C)c3c2)c1C` [Example 297, 5-Cyano-3,4-dimethyl-N-(3-methyl-1H-indazol-5-yl)picolinamide], the pIC50 is 6.00 to 7.00 in experiment [1] and over 7.00 in experiment [2].

On to `Cc1c(C#N)cnc(C(=O)Nc2ccc3[nH]nc(-c4cn[nH]c4)c3c2)c1C` [Example 183, N-(3-(1H-Pyrazol-4-yl)-1H-indazol-5-yl)-5-cyano-3,4-dimethylpicolinamide], for which the pIC50 in experiment [1] and in experiment [2] was over 7.00 in each case.

Take `Cc1c(C(=O)Nc2ccc3[nH]nc(-c4cnco4)c3c2)nc(Cl)c(C#N)c1C` [Example 184, 6-Chloro-5-cyano-3,4-dimethyl-N-(3-(oxazol-5-yl)-1H-indazol-5-yl)picolinamide]: the pIC50 in experiment [1] and in experiment [2] was over 7.00 each time.

On to `Cc1c(C(=O)Nc2ccc3[nH]nc(-c4ccnc(N5CCOCC5)c4)c3c2)nc(Cl)c(C#N)c1C` [Example 278, 6-Chloro-5-cyano-3,4-dimethyl-N-(3-(2-morpholinopyridin-4-yl)-1H-indazol-5-yl)picolinamide], for which the pIC50 in experiment [1] and in experiment [2] was over 7.00 each time.

For `Cc1ncc(-c2n[nH]c3ccc(NC(=O)c4ncc(C#N)cc4C)cc23)o1` [Example 129, 5-Cyano-3-methyl-N-(3-(2-methyloxazol-5-yl)-1H-indazol-5-yl)picolinamide], the pIC50 in experiment [1] and in experiment [2] was over 7.00 in each case.

Regarding `Cc1c(C#N)cnc(C(=O)Nc2ccc3[nH]nc(C4(C)CC4)c3c2)c1C` [Example 268, 5-Cyano-3,4-dimethyl-N-(3-(1-methylcyclopropyl)-1H-indazol-5-yl)picolinamide], the pIC50 in experiment [1] was 5.00 to 6.00; in experiment [2], 6.00 to 7.00.

Turning to `N#Cc1cnc(C(=O)Nc2ccc3[nH]nc(-c4cnoc4)c3c2)c(C2CC2)c1` [Example 310, 5-Cyano-3-cyclopropyl-N-(3-(isoxazol-4-yl)-1H-indazol-5-yl)picolinamide], the results for the pIC50 in experiment [1] and in experiment [2] were 6.00 to 7.00 and over 7.00, respectively.
